One block for each compound: values may come before it.
System: 349418-098-R-PDC complex spheroid viability
Experiment: Anticancer human tumor 349418-098-R-PDC patient-derived lung adenocarcinoma cell line growth inhibition [RAS]
Settings: for viability, T/C: stronger effect = lower value
Outline: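 Tumour cells grown as complex spheroids with HUVEC endothelial cells and mesenchymal stem cells, treated with RAS pathway inhibitor combinations. Each agent spans half-log steps from near clinical Cmax, or 10 microM where Cmax is unknown.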

[1] = curve of first compound, second compound 0.000949 µM
[2] = curve of first compound, second compound 0.003 µM
[3] = curve of first compound, second compound 0.00949 µM
[4] = curve of first compound, second compound 0.03 µM
[5] = curve of first compound, second compound 0.0949 µM
[6] = curve of first compound, second compound 0.3 µM
[7] = second compound 0.000949 µM, first compound 0.0316 µM
[8] = second compound 0.000949 µM, first compound 0.1 µM
[9] = second compound 0.000949 µM, first compound 0.316 µM
[10] = second compound 0.000949 µM, first compound 1 µM
[11] = second compound 0.003 µM, first compound 0.0316 µM
[12] = second compound 0.003 µM, first compound 0.1 µM
[13] = second compound 0.003 µM, first compound 0.316 µM
[14] = second compound 0.003 µM, first compound 1 µM
[15] = second compound 0.00949 µM, first compound 0.0316 µM
[16] = second compound 0.00949 µM, first compound 0.1 µM
[17] = second compound 0.00949 µM, first compound 0.316 µM
[18] = second compound 0.00949 µM, first compound 1 µM
[19] = second compound 0.03 µM, first compound 0.0316 µM
[20] = second compound 0.03 µM, first compound 0.1 µM
[21] = second compound 0.03 µM, first compound 0.316 µM
[22] = second compound 0.03 µM, first compound 1 µM
[23] = second compound 0.0949 µM, first compound 0.0316 µM
[24] = second compound 0.0949 µM, first compound 0.1 µM
[25] = second compound 0.0949 µM, first compound 0.316 µM
[26] = second compound 0.0949 µM, first compound 1 µM
[27] = second compound 0.3 µM, first compound 0.0316 µM
[28] = second compound 0.3 µM, first compound 0.1 µM
[29] = second compound 0.3 µM, first compound 0.316 µM
[30] = second compound 0.3 µM, first compound 1 µM
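Further: spheroids exposed to compound for seven days before viability readout.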

- IC50 [1]: 1280 nM
- IC50 [2]: 1500 nM
- IC50 [3]: 1430 nM
- IC50 [4]: 1580 nM
- IC50 [5]: 1900 nM
- IC50 [6]: 1230 nM
SMILES: C[C@@H](NC(=O)c1ncnc(N)c1Cl)c1ncc(C(=O)Nc2cc(C(F)(F)F)c(Cl)cn2)s1 + CCn1c(-c2cccnc2C(C)OC)c2c3cc(ccc31)N1CCOC(CC(NC(=O)C(C(C)C)N(C)C(=O)C3(F)CCN(C(=O)C#CC(C)(C)N(C)C)CC3)C(=O)N3CCCC(N3)C(=O)OCC(C)(C)C2)C1
- viability, T/C [7]: 113%
- viability, T/C [8]: 106%
- viability, T/C [9]: 90.3%
- viability, T/C [10]: 55.4%
- viability, T/C (second compound 0.000949 µM, first compound 3.16 µM): 29.4%
- viability, T/C (second compound 0.000949 µM, first compound 10 µM): 20.2%
- viability, T/C [11]: 117%
- viability, T/C [12]: 97.5%
- viability, T/C [13]: 88.3%
- viability, T/C [14]: 58.2%
- viability, T/C (second compound 0.003 µM, first compound 3.16 µM): 32.5%
- viability, T/C (second compound 0.003 µM, first compound 10 µM): 19.4%
- viability, T/C [15]: 94.7%
- viability, T/C [16]: 92.5%
- viability, T/C [17]: 73.9%
- viability, T/C [18]: 47.5%
- viability, T/C (second compound 0.00949 µM, first compound 3.16 µM): 45.1%
- viability, T/C (second compound 0.00949 µM, first compound 10 µM): 18.4%
- viability, T/C [19]: 114%
- viability, T/C [20]: 84.2%
- viability, T/C [21]: 82%
- viability, T/C [22]: 61.4%
- viability, T/C (second compound 0.03 µM, first compound 3.16 µM): 33.7%
- viability, T/C (second compound 0.03 µM, first compound 10 µM): 19.5%
- viability, T/C [23]: 97.2%
- viability, T/C [24]: 96.5%
- viability, T/C [25]: 89.3%
- viability, T/C [26]: 72.4%
- viability, T/C (second compound 0.0949 µM, first compound 3.16 µM): 32.5%
- viability, T/C (second compound 0.0949 µM, first compound 10 µM): 16.8%
- viability, T/C [27]: 107%
- viability, T/C [28]: 81.2%
- viability, T/C [29]: 66.5%
- viability, T/C [30]: 57.4%
- viability, T/C (second compound 0.3 µM, first compound 3.16 µM): 40.9%
- viability, T/C (second compound 0.3 µM, first compound 10 µM): 14.8%

- IC50 (curve of compound): 476 nM [middle of 4 runs]
SMILES: CC(C)NCC(C(=O)N1CCN(c2ncnc3c2C(C)CC3O)CC1)c1ccc(Cl)cc1 (configuration not stated)
- viability, T/C (compound 0.1 µM): 81.7% [middle of 4 runs]
- viability, T/C (compound 0.316 µM): 62.2% [middle of 4 runs]
- viability, T/C (compound 1 µM): 37.9% [middle of 4 runs]
- viability, T/C (compound 3.16 µM): 18% [middle of 4 runs]
- viability, T/C (compound 10 µM): 12.6% [middle of 4 runs]

- IC50 [1]: > 1000 nM
- IC50 [2]: > 1000 nM
- IC50 [3]: > 1000 nM
- IC50 [4]: > 1000 nM
- IC50 [5]: > 1000 nM
- IC50 [6]: > 1000 nM
SMILES: C=CC(=O)Nc1cc(Nc2nccc(-c3cn(C)c4ccccc34)n2)c(OC)cc1N(C)CCN(C)C + CCn1c(-c2cccnc2C(C)OC)c2c3cc(ccc31)N1CCOC(CC(NC(=O)C(C(C)C)N(C)C(=O)C3(F)CCN(C(=O)C#CC(C)(C)N(C)C)CC3)C(=O)N3CCCC(N3)C(=O)OCC(C)(C)C2)C1
- viability, T/C (second compound 0.000949 µM, first compound 0.00316 µM): 115%
- viability, T/C (second compound 0.000949 µM, first compound 0.01 µM): 100%
- viability, T/C [7]: 93.6%
- viability, T/C [8]: 98.3%
- viability, T/C [9]: 95.4%
- viability, T/C [10]: 71.8%
- viability, T/C (second compound 0.003 µM, first compound 0.00316 µM): 117%
- viability, T/C (second compound 0.003 µM, first compound 0.01 µM): 98.6%
- viability, T/C [11]: 114%
- viability, T/C [12]: 116%
- viability, T/C [13]: 116%
- viability, T/C [14]: 60.7%
- viability, T/C (second compound 0.00949 µM, first compound 0.00316 µM): 109%
- viability, T/C (second compound 0.00949 µM, first compound 0.01 µM): 117%
- viability, T/C [15]: 110%
- viability, T/C [16]: 96%
- viability, T/C [17]: 104%
- viability, T/C [18]: 75.9%
- viability, T/C (second compound 0.03 µM, first compound 0.00316 µM): 119%
- viability, T/C (second compound 0.03 µM, first compound 0.01 µM): 109%
- viability, T/C [19]: 105%
- viability, T/C [20]: 106%
- viability, T/C [21]: 103%
- viability, T/C [22]: 75.2%
- viability, T/C (second compound 0.0949 µM, first compound 0.00316 µM): 110%
- viability, T/C (second compound 0.0949 µM, first compound 0.01 µM): 99.3%
- viability, T/C [23]: 85.4%
- viability, T/C [24]: 98.6%
- viability, T/C [25]: 101%
- viability, T/C [26]: 65.3%
- viability, T/C (second compound 0.3 µM, first compound 0.00316 µM): 90.2%
- viability, T/C (second compound 0.3 µM, first compound 0.01 µM): 99.8%
- viability, T/C [27]: 99.2%
- viability, T/C [28]: 100%
- viability, T/C [29]: 88.2%
- viability, T/C [30]: 65.6%

- IC50 (curve of first compound, second compound 0.00316 µM): > 10000 nM
- IC50 (curve of first compound, second compound 0.01 µM): > 10000 nM
- IC50 (curve of first compound, second compound 0.0316 µM): > 10000 nM
- IC50 (curve of first compound, second compound 0.1 µM): > 10000 nM
- IC50 (curve of first compound, second compound 0.316 µM): > 10000 nM
- IC50 (curve of first compound, second compound 1 µM): > 10000 nM
SMILES: NC1c2ccccc2OC12CCN(c1cnc3c(N4CCCc5ncccc54)n[nH]c3n1)CC2 (configuration not stated) + C=CC(=O)N1CCN(c2nc(OCC3CCCN3C)nc3c(F)c(-c4nc(N)cc(C)c4C(F)(F)F)c(Cl)cc23)C(C)C1
- viability, T/C (second compound 0.00316 µM, first compound 0.0316 µM): 106%
- viability, T/C (second compound 0.00316 µM, first compound 0.1 µM): 85.4%
- viability, T/C (second compound 0.00316 µM, first compound 0.316 µM): 93.2%
- viability, T/C (second compound 0.00316 µM, first compound 1 µM): 75.5%
- viability, T/C (second compound 0.00316 µM, first compound 3.16 µM): 102%
- viability, T/C (second compound 0.00316 µM, first compound 10 µM): 55.8%
- viability, T/C (second compound 0.01 µM, first compound 0.0316 µM): 113%
- viability, T/C (second compound 0.01 µM, first compound 0.1 µM): 91.4%
- viability, T/C (second compound 0.01 µM, first compound 0.316 µM): 110%
- viability, T/C (second compound 0.01 µM, first compound 1 µM): 72.9%
- viability, T/C (second compound 0.01 µM, first compound 3.16 µM): 93.9%
- viability, T/C (second compound 0.01 µM, first compound 10 µM): 68.5%
- viability, T/C (second compound 0.0316 µM, first compound 0.0316 µM): 114%
- viability, T/C (second compound 0.0316 µM, first compound 0.1 µM): 100%
- viability, T/C (second compound 0.0316 µM, first compound 0.316 µM): 67%
- viability, T/C (second compound 0.0316 µM, first compound 1 µM): 86%
- viability, T/C (second compound 0.0316 µM, first compound 3.16 µM): 82.3%
- viability, T/C (second compound 0.0316 µM, first compound 10 µM): 71.1%
- viability, T/C (second compound 0.1 µM, first compound 0.0316 µM): 100%
- viability, T/C (second compound 0.1 µM, first compound 0.1 µM): 82.5%
- viability, T/C (second compound 0.1 µM, first compound 0.316 µM): 83.1%
- viability, T/C (second compound 0.1 µM, first compound 1 µM): 101%
- viability, T/C (second compound 0.1 µM, first compound 3.16 µM): 119%
- viability, T/C (second compound 0.1 µM, first compound 10 µM): 76.7%
- viability, T/C (second compound 0.316 µM, first compound 0.0316 µM): 80%
- viability, T/C (second compound 0.316 µM, first compound 0.1 µM): 92.7%
- viability, T/C (second compound 0.316 µM, first compound 0.316 µM): 92.1%
- viability, T/C (second compound 0.316 µM, first compound 1 µM): 91.1%
- viability, T/C (second compound 0.316 µM, first compound 3.16 µM): 100%
- viability, T/C (second compound 0.316 µM, first compound 10 µM): 64%
- viability, T/C (second compound 1 µM, first compound 0.0316 µM): 64.5%
- viability, T/C (second compound 1 µM, first compound 0.1 µM): 89.8%
- viability, T/C (second compound 1 µM, first compound 0.316 µM): 74%
- viability, T/C (second compound 1 µM, first compound 1 µM): 83.7%
- viability, T/C (second compound 1 µM, first compound 3.16 µM): 71.2%
- viability, T/C (second compound 1 µM, first compound 10 µM): 69.1%

Reference: PubChem BioAssay AID2060904 (Molecular Pharmacology Branch, DTP, NCI, 2025)
